Laboratory results taken from ChEMBL document CHEMBL1773037, “Evaluation of superior BACE1 cleavage sequences containing unnatural amino acids” (Bioorg Med Chem, 2011).
Starred links: 1 amine or outer side, 2 acyl side, 3 side chain; linkers in the order of their positions; H or OH if unused. Non-standard residues stand in square brackets, D forms with d. Residues, ends and D or L forms follow the SMILES beside them. X1 = O=C(O)[C@@H]1Cc2ccccc2CN1[C@H](N[*:1])C(=O)[*:2]; 2Thi = N[C@@H](Cc1cccs1)C(=O)O; Cha = N[C@@H](CC1CCCCC1)C(=O)O; Cit = NC(=O)NCCC[C@H](N)C(=O)O; Phg = N[C@H](C(=O)O)c1ccccc1; Tle = CC(C)(C)[C@H](N)C(=O)O; Nva = CCC[C@H](N)C(=O)O; Abu = CC[C@H](N)C(=O)O

biological target: Beta-secretase 1 (Homo sapiens) (UniProt P56817); assay: Activity of recombinant BACE assessed as retention time of substrate by HPLC method
Sequence (P56817 whole entry): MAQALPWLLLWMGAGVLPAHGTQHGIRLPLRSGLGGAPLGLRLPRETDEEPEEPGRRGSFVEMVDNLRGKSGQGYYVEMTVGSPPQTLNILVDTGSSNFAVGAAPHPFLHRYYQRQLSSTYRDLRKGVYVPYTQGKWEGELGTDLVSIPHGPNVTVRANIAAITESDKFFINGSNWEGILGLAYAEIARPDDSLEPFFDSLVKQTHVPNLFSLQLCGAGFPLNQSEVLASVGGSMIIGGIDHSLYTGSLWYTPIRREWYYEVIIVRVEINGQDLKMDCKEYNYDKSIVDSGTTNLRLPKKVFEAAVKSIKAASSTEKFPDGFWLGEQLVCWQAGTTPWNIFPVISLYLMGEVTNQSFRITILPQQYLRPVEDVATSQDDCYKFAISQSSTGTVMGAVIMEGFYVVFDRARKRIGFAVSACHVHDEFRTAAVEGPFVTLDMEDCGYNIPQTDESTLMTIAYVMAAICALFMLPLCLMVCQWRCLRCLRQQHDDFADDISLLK

Compound	retention time
CCC[C@H](NC(=O)[C@H](CO)NC(=O)[C@@H](N)[C@@H](C)CC)C(=O)N[C@H](C(=O)N[C@@H](CC(N)=O)C(=O)N[C@@H](CC(C)C)C(=O)N[C@@H](CC(=O)O)C(=O)N[C@@H](C)C(=O)N[C@@H](CCC(=O)O)C(=O)N[C@@H](Cc1ccccc1)C(=O)N[C@@H](CCCNC(=N)N)C(=O)N[C@@H](Cc1cnc[nH]1)C(N)=O)C(C)C (H-IS[Nva]VNLDAEFRH-NH2)	0.567 h
CCC[C@H](N)C(=O)N[C@@H](C)C(=O)N[C@@H](CCC(=O)O)C(=O)N[C@@H](Cc1ccccc1)C(=O)N[C@@H](CCCNC(=N)N)C(=O)N[C@@H](Cc1cnc[nH]1)C(N)=O (H-[Nva]AEFRH-NH2)	0.269 h
CC[C@H](C)[C@H](N)C(=O)N[C@@H](CO)C(=O)N[C@@H](CCC(=O)O)C(=O)N[C@H](C(=O)N[C@@H](CCCCN)C(=O)N[C@@H](CCSC)C(=O)N[C@@H](CC(=O)O)C(=O)N[C@@H](C)C(=O)N[C@@H](CCC(=O)O)C(=O)N[C@@H](Cc1ccccc1)C(=O)N[C@@H](CCCNC(=N)N)C(=O)N[C@@H](Cc1cnc[nH]1)C(N)=O)C(C)C (H-ISEVKMDAEFRH-NH2)	0.419 h
CC[C@H](C)[C@H](N)C(=O)N[C@@H](CO)C(=O)N[C@@H](CCC(=O)O)C(=O)N[C@H](C(=O)N[C@@H](CC(N)=O)C(=O)N[C@@H](CC(C)C)C(=O)N[C@H](C(=O)N[C@@H](C)C(=O)N[C@@H](CCC(=O)O)C(=O)N[C@@H](Cc1ccccc1)C(=O)N[C@@H](CCCNC(=N)N)C(=O)N[C@@H](Cc1cnc[nH]1)C(N)=O)C(C)(C)C)C(C)C (H-ISEVNL[Tle]AEFRH-NH2)	0.629 h
CC[C@H](C)[C@H](N)C(=O)N[C@@H](CO)C(=O)N[C@@H](CCC(=O)O)C(=O)N[C@H](C(=O)N[C@@H](CC1CCCCC1)C(=O)N[C@@H](CC(C)C)C(=O)N[C@@H](CC(=O)O)C(=O)N[C@@H](C)C(=O)N[C@@H](CCC(=O)O)C(=O)N[C@@H](Cc1ccccc1)C(=O)N[C@@H](CCCNC(=N)N)C(=O)N[C@@H](Cc1cnc[nH]1)C(N)=O)C(C)C (H-ISEV[Cha]LDAEFRH-NH2)	0.616 h
CC[C@H](C)[C@H](N)C(=O)N[C@@H](CO)C(=O)N[C@@H](CCC(=O)O)C(=O)N[C@H](C(=O)N[C@@H](CC(N)=O)C(=O)N[C@@H](CC(C)C)C(=O)N[C@@H](CC(=O)O)C(=O)N[C@@H](C)C(=O)N[C@@H](CCC(=O)O)C(=O)N[C@@H](Cc1ccccc1)C(=O)N[C@@H](CCCNC(=N)N)C(=O)N[C@@H](Cc1cnc[nH]1)C(N)=O)C(C)(C)C (H-ISE[Tle]NLDAEFRH-NH2)	0.517 h
CC[C@H](C)[C@H](N)C(=O)N[C@@H](CO)C(=O)N[C@@H](Cc1cccs1)C(=O)N[C@H](C(=O)N[C@@H](CC(N)=O)C(=O)N[C@@H](CC(C)C)C(=O)N[C@@H](CC(=O)O)C(=O)N[C@@H](C)C(=O)N[C@@H](CCC(=O)O)C(=O)N[C@@H](Cc1ccccc1)C(=O)N[C@@H](CCCNC(=N)N)C(=O)N[C@@H](Cc1cnc[nH]1)C(N)=O)C(C)C (H-IS[2Thi]VNLDAEFRH-NH2)	0.591 h
CC[C@H](C)[C@H](N)C(=O)N[C@@H](CO)C(=O)N[C@@H](CC1CCCCC1)C(=O)N[C@H](C(=O)N[C@@H](CC(N)=O)C(=O)N[C@@H](CC(C)C)C(=O)N[C@@H](CC(=O)O)C(=O)N[C@@H](C)C(=O)N[C@@H](CCC(=O)O)C(=O)N[C@@H](Cc1ccccc1)C(=O)N[C@@H](CCCNC(=N)N)C(=O)N[C@@H](Cc1cnc[nH]1)C(N)=O)C(C)C (H-IS[Cha]VNLDAEFRH-NH2)	0.689 h
CC[C@H](NC(=O)[C@@H](NC(=O)[C@H](CCC(=O)O)NC(=O)[C@H](CO)NC(=O)[C@@H](N)[C@@H](C)CC)C(C)C)C(=O)N[C@@H](CC(C)C)C(=O)N[C@@H](CC(=O)O)C(=O)N[C@@H](C)C(=O)N[C@@H](CCC(=O)O)C(=O)N[C@@H](Cc1ccccc1)C(=O)N[C@@H](CCCNC(=N)N)C(=O)N[C@@H](Cc1cnc[nH]1)C(N)=O (H-ISEV[Abu]LDAEFRH-NH2)	0.5 h
CC[C@H](C)[C@H](N)C(=O)N[C@@H](CO)C(=O)N[C@@H](CCC(=O)O)C(=O)N[C@H](C(=O)N[C@@H](CC(N)=O)C(=O)N[C@@H](Cc1ccc(O)cc1)C(=O)N[C@@H](CC(=O)O)C(=O)N[C@@H](C)C(=O)N[C@@H](CCC(=O)O)C(=O)N[C@@H](Cc1ccccc1)C(=O)N[C@@H](CCCNC(=N)N)C(=O)N[C@@H](Cc1cnc[nH]1)C(N)=O)C(C)C (H-ISEVNYDAEFRH-NH2)	0.42 h
CC[C@H](C)[C@H](N)C(=O)N[C@@H](CO)C(=O)N[C@@H](CCC(=O)O)C(=O)N[C@H](C(=O)N[C@@H](CC(N)=O)C(=O)N[C@@H](CC(C)C)C(=O)N[C@@H](CCC(N)=O)C(=O)N[C@@H](C)C(=O)N[C@@H](CCC(=O)O)C(=O)N[C@@H](Cc1ccccc1)C(=O)N[C@@H](CCCNC(=N)N)C(=O)N[C@@H](Cc1cnc[nH]1)C(N)=O)C(C)C (H-ISEVNLQAEFRH-NH2)	0.52 h
CC[C@H](C)[C@H](N)C(=O)N[C@@H](CO)C(=O)N[C@@H](CCC(=O)O)C(=O)N[C@H](C(=O)N[C@@H](CC(N)=O)C(=O)N[C@@H](CC(C)C)C(=O)N[C@@H](CC1CCCCC1)C(=O)N[C@@H](C)C(=O)N[C@@H](CCC(=O)O)C(=O)N[C@@H](Cc1ccccc1)C(=O)N[C@@H](CCCNC(=N)N)C(=O)N[C@@H](Cc1cnc[nH]1)C(N)=O)C(C)C (H-ISEVNL[Cha]AEFRH-NH2)	0.727 h
CC[C@H](C)[C@H](N)C(=O)N[C@@H](CO)C(=O)N[C@@H](CC(=O)O)C(=O)N[C@H](C(=O)N[C@@H](CC(N)=O)C(=O)N[C@@H](CC(C)C)C(=O)N[C@@H](CC(=O)O)C(=O)N[C@@H](C)C(=O)N[C@@H](CCC(=O)O)C(=O)N[C@@H](Cc1ccccc1)C(=O)N[C@@H](CCCNC(=N)N)C(=O)N[C@@H](Cc1cnc[nH]1)C(N)=O)C(C)C (H-ISDVNLDAEFRH-NH2)	0.474 h
CC[C@H](C)[C@H](N)C(=O)N[C@@H](CO)C(=O)N[C@@H](CCC(=O)O)C(=O)N[C@H](C(=O)N[C@@H](CC(N)=O)C(=O)N[C@@H](CC(C)C)C(=O)N[C@@H](CC(=O)O)C(=O)N[C@@H](C)C(=O)N[C@@H](CCC(=O)O)C(=O)N[C@@H](Cc1ccccc1)C(=O)N[C@@H](CCCNC(=N)N)C(=O)N[C@@H](Cc1cnc[nH]1)C(N)=O)N1Cc2ccccc2C[C@H]1C(=O)O (H-ISE[X1]NLDAEFRH-NH2)	0.599 h
CC[C@H](NC(=O)[C@H](CO)NC(=O)[C@@H](N)[C@@H](C)CC)C(=O)N[C@H](C(=O)N[C@@H](CC(N)=O)C(=O)N[C@@H](CC(C)C)C(=O)N[C@@H](CC(=O)O)C(=O)N[C@@H](C)C(=O)N[C@@H](CCC(=O)O)C(=O)N[C@@H](Cc1ccccc1)C(=O)N[C@@H](CCCNC(=N)N)C(=O)N[C@@H](Cc1cnc[nH]1)C(N)=O)C(C)C (H-IS[Abu]VNLDAEFRH-NH2)	0.528 h
CC[C@H](C)[C@H](N)C(=O)N[C@@H](CO)C(=O)N[C@@H](CCC(=O)O)C(=O)N[C@H](C(=O)N[C@@H](CC(N)=O)C(=O)N[C@@H](CC(C)C)C(=O)N[C@@H](CCCNC(N)=O)C(=O)N[C@@H](C)C(=O)N[C@@H](CCC(=O)O)C(=O)N[C@@H](Cc1ccccc1)C(=O)N[C@@H](CCCNC(=N)N)C(=O)N[C@@H](Cc1cnc[nH]1)C(N)=O)C(C)C (H-ISEVNL[Cit]AEFRH-NH2)	0.536 h
CC[C@H](C)[C@H](N)C(=O)N[C@@H](CO)C(=O)N[C@@H](CCC(=O)O)C(=O)N[C@H](C(=O)N[C@H](C(=O)N[C@@H](CC(C)C)C(=O)N[C@@H](CC(=O)O)C(=O)N[C@@H](C)C(=O)N[C@@H](CCC(=O)O)C(=O)N[C@@H](Cc1ccccc1)C(=O)N[C@@H](CCCNC(=N)N)C(=O)N[C@@H](Cc1cnc[nH]1)C(N)=O)c1ccccc1)C(C)C (H-ISEV[Phg]LDAEFRH-NH2)	0.541 h
CC[C@H](C)[C@H](N)C(=O)N[C@@H](CO)C(=O)N[C@@H](CCC(=O)O)C(=O)N[C@H](C(=O)N[C@@H](Cc1cccs1)C(=O)N[C@@H](Cc1cccs1)C(=O)O)[C@@H](C)CC (H-ISEI[2Thi][2Thi]-OH)	0.63 h
CC[C@H](C)[C@H](N)C(=O)N[C@@H](CO)C(=O)N[C@@H](CCC(=O)O)C(=O)N[C@H](C(=O)N[C@@H](CCCNC(N)=O)C(=O)N[C@@H](CC(C)C)C(=O)N[C@@H](CC(=O)O)C(=O)N[C@@H](C)C(=O)N[C@@H](CCC(=O)O)C(=O)N[C@@H](Cc1ccccc1)C(=O)N[C@@H](CCCNC(=N)N)C(=O)N[C@@H](Cc1cnc[nH]1)C(N)=O)C(C)C (H-ISEV[Cit]LDAEFRH-NH2)	0.482 h
CC[C@H](C)[C@H](N)C(=O)N[C@@H](CO)C(=O)N[C@@H](CCC(=O)O)C(=O)N[C@H](C(=O)N[C@@H](Cc1ccccc1)C(=O)N[C@@H](CC(C)C)C(=O)N[C@@H](CC(=O)O)C(=O)N[C@@H](C)C(=O)N[C@@H](CCC(=O)O)C(=O)N[C@@H](Cc1ccccc1)C(=O)N[C@@H](CCCNC(=N)N)C(=O)N[C@@H](Cc1cnc[nH]1)C(N)=O)C(C)C (H-ISEVFLDAEFRH-NH2)	0.565 h
CC[C@H](C)[C@H](N)C(=O)N[C@@H](CO)C(=O)N[C@@H](CCC(=O)O)C(=O)N[C@H](C(=O)N[C@@H](CC(N)=O)C(=O)N[C@H](C(=O)N[C@@H](CC(=O)O)C(=O)N[C@@H](C)C(=O)N[C@@H](CCC(=O)O)C(=O)N[C@@H](Cc1ccccc1)C(=O)N[C@@H](CCCNC(=N)N)C(=O)N[C@@H](Cc1cnc[nH]1)C(N)=O)N1Cc2ccccc2C[C@H]1C(=O)O)C(C)C (H-ISEVN[X1]DAEFRH-NH2)	0.502 h
CC[C@H](C)[C@H](N)C(=O)N[C@@H](CO)C(=O)N[C@@H](CCC(=O)O)C(=O)N[C@H](C(=O)N[C@@H](CC(N)=O)C(=O)N[C@@H](CC(C)C)C(=O)N[C@@H](Cc1cccs1)C(=O)N[C@@H](C)C(=O)N[C@@H](CCC(=O)O)C(=O)N[C@@H](Cc1ccccc1)C(=O)N[C@@H](CCCNC(=N)N)C(=O)N[C@@H](Cc1cnc[nH]1)C(N)=O)C(C)C (H-ISEVNL[2Thi]AEFRH-NH2)	0.656 h
CC[C@H](C)[C@H](N)C(=O)N[C@@H](CO)C(=O)N[C@@H](CCC(N)=O)C(=O)N[C@H](C(=O)N[C@@H](CC(N)=O)C(=O)N[C@@H](CC(C)C)C(=O)N[C@@H](CC(=O)O)C(=O)N[C@@H](C)C(=O)N[C@@H](CCC(=O)O)C(=O)N[C@@H](Cc1ccccc1)C(=O)N[C@@H](CCCNC(=N)N)C(=O)N[C@@H](Cc1cnc[nH]1)C(N)=O)C(C)C (H-ISQVNLDAEFRH-NH2)	0.469 h
